Reference: article PMC9958131 (Nature Communications, 2023)
No end group written: not given here. *: point of attachment. Cam = NC(=O)C*

Tests used:
PAD2 and PAD4 = experiment: Citrullination site mapping of fibrinogen and vimentin by trypsin digestion and mass spectrometry (protein-level sheet, one search over native, PAD2-cit and PAD4-cit samples); format: biochemical, human; details: modified residues found per protein; Deamidated [R..] = deamidated (citrullinated) arginine positions; trypsin digest, Sequest HT; not split by sample (native, PAD2-citrullinated, PAD4-citrullinated fibrinogen and vimentin)
From the text: (§1) Description: Raw mass spectrometry data for proteolytic mapping of fibrinogen, vimentin, and hnRNP A2/B1 by cathepsins B, S, and H (sheets 1-6); citrullination site mapping of fibrinogen and vimentin by trypsin digestion (sheets 7-8); and the natural antigen processing assay with native, PAD2-citrullinated (PAD2-cit), and PAD4-citrullinated (PAD4-cit) fibrinogen (sheets 9-11).

[1] = test system: recombinant human PAD2 and PAD4; experiment: Citrullination site mapping by trypsin digestion and mass spectrometry; protein-level modifications over native, PAD2- and PAD4-citrullinated samples combined; format: biochemical; details: trypsin digest, Sequest HT search; co-identified proteins in the fibrinogen and vimentin samples (native, PAD2-cit, PAD4-cit); not split by sample or enzyme
From the text: as §1

cathepsins B, S, and H = experiment: Proteolytic mapping (ProtMap) of native and citrullinated autoantigens by cathepsins B, S, and H with LFQ-MS; format: biochemical, human; details: sites found over all samples of the cathepsin B, H digests, MSFragger search
Experimental: Prior to proteolytic mapping, citrullinated antigens were generated by incubating recombinant human antigens—hnRNP A2/B1 (RA33; custom-made as previously described by in ref. [24]), fibrinogen (Cayman Chemical), and vimentin (PeproTech)—with Sf9-purified peptidylarginine deiminase 2 or 4 (PAD2 or PAD4; Inova) at a 17:1 mass ratio in citrullination buffer (100 mM Tris, 1 mM DTT, 5 mM CaCl2, pH 7.5) for 4 h at 37 °C. Native antigens were diluted in the same buffer without PAD enzymes and without incubation at 37 °C to prevent degradation. Citrullination was confirmed by anti-peptidylcitrulline (clone F95, EMD Millipore) immunoblotting. […] The resulting peptide repertoires were then analyzed by LFQ–MS.
Prior to MS, the samples were reduced and alkylated by incubating in 10 mM Tris (2-Carboxyethyl) phosphine hydrochloride (TCEP, v/v) and 50 mM chloroacetamide (CAA, v/v) for 1 h at room temperature. […] The peptide samples were analyzed on an Orbitrap Fusion Lumos Tribrid mass spectrometer interfaced with an Ultimate 3000 RS Autosampler nanoflow liquid chromatography system (Thermo Scientific). […] The most intense ions with charge states of 2–5 were isolated in a 3-s cycle, fragmented using higher-energy collisional dissociation (HCD) fragmentation with 32% normalized collision energy, and detected at a mass resolution of 50,000 at an m/z of 200. […]

PAD2 / PAD4 = experiment: Citrullination site mapping of fibrinogen and vimentin by trypsin digestion, protein-level sheet (native, PAD2- and PAD4-citrullinated samples searched together); format: biochemical, Homo sapiens; details: deamidated Arg (= citrullinated) positions found by Sequest HT after trypsin digestion; one list for all six samples (native, PAD2-, PAD4-citrullinated fibrinogen and vimentin); co-purified/contaminant proteins
From the text: as §1

In the case of P01024 [Peptide P01024], the Modifications (PAD2 and PAD4) is reported as “Deamidated [R315; R386; R462; R710; R712; R1134; R1507; R1512; R1532; R1582]”.
With “Glyceraldehyde-3-phosphate dehydrogenase” the “Modifications (Deamidated [R...] = citrullinated arginine positions found)” value [1] was “Deamidated [R80]”.
For A0A4W9A917 [Peptide A0A4W9A917], the Modifications (PAD2 and PAD4) was “Deamidated [R365]”.
“P35527 (GGGGGGGLGSGGSIRSSY) [Peptide P35527]” was tested, and the Modifications (PAD2 and PAD4) was “Deamidated [R95; R163; R233; R250; R261; R327; R374; R427]”.
With “Vimentin: recombinant human vimentin (PeproTech), RA autoantigen; native or citrullinated by PAD2 or PAD4” the Modifications (PAD2 and PAD4) was “Deamidated [R13; R23; R28; R36; R45; R50; R64; R69; R71; R78; R100; R113; R122; R145; R155; R158; R159; R170; R175; R184; R186; R196; R207; R217; R222; R270; R273; R304; R310; R320; R321; R342; R345; R364; R378; R381; R401; R410; R424; R440; R450]” and the “Modifications (deamidated arginine = citrullinated sites detected)” value (cathepsins B, S, and H) was “Deamidated [R13; R23; R36; R64; R100; R113; R158; R175; R184; R196; R207; R270; R273; R304; R310; R364; R401; R410; R424; R440; R450]”.
For P02768 [Peptide P02768], the Modifications (PAD2 and PAD4) was “Deamidated [R105; R122; R138; R141; R169; R281; R434; R452; R469; R509]”.
With “P48668 (QC(Cam)ASLQAAIADAEQR) [Peptide P48668]” the Modifications (PAD2 and PAD4) was “Deamidated [R182; R222; R326]”.
For P02751 [Peptide P02751], the Modifications (PAD2 and PAD4) was “Deamidated [R83; R107; R114; R130; R155; R156; R241; R252; R265; R272; R290; R479; R694; R784; R1157; R1197; R1473; R1525; R1543; R1664; R1844; R1909; R1950; R1982; R2165; R2335; R2340; R2357; R2417; R2426; R2447; R2451]”.
With “P49771 (LLQETSEQLVALKPWITR; also: deamidated, site not given here) [Peptide P49771]” the Modifications (PAD2 and PAD4) was “Deamidated [R81; R85; R100; R147]”.
“P22090 (LREC(Cam)LPLIVFLR) [Peptide P22090]” was tested, and the Modifications (PAD2 / PAD4) was “Deamidated [R39]”.
With Tubulin beta-2A chain the “Modifications (Deamidated [R...] = citrullinated arginine positions found)” value [1] was “Deamidated [R2; R121]”.
With “Q15323 (LNVEVDAAPTVDLNR) [Peptide Q15323]” the Modifications (PAD2 and PAD4) was “Deamidated [R293]”.
For Tubulin beta chain, the “Modifications (Deamidated [R...] = citrullinated arginine positions found)” value [1] was “Deamidated [R2; R121; R156; R162]”.
For Clusterin, the “Modifications (Deamidated [R...] = citrullinated arginine positions found)” value [1] was “Deamidated [R306; R425]”.
“P35908 (GPGGFGPGGYPGGIHE) [Peptide P35908]” was tested, and the Modifications (PAD2 and PAD4) was “Deamidated [R45; R122; R221; R238; R247; R341; R384; R524; R544]”.
For P01834 [Peptide P01834], the Modifications (PAD2 and PAD4) was “Deamidated [R1]”.
With P23142 (VRPIVGPFH) [Peptide P23142] the Modifications (PAD2 and PAD4) was “Deamidated [R90; R179; R181; R287; R289; R343; R353; R467; R561; R562; R582; R642]”.
With “Q14525 (EVEQWFATQTEELNK) [Peptide Q14525]” the Modifications (PAD2 and PAD4) was “Deamidated [R293]”.
With P08779 [Peptide P08779] the Modifications (PAD2 and PAD4) was “Deamidated [R127; R284; R441]; Met-loss+Acetyl [N-Term]”.
With “P62269 (IPDWFLNRQK; also: deamidated, site not given here) [Peptide P62269]” the Modifications (PAD2 / PAD4) was “Deamidated [R86]”.
Hornerin was tested, and the “Modifications (Deamidated [R...] = citrullinated arginine positions found)” value [1] was “Deamidated [R1507; R2447; R3930]”.
For Serotransferrin, the “Modifications (Deamidated [R...] = citrullinated arginine positions found)” value [1] was “Deamidated [R239]”.
With P13645 (LQIDNARLAADDF) [Peptide P13645] the Modifications (PAD2 and PAD4) was “Deamidated [R15; R35; R156; R228; R245; R256; R322; R333; R399; R441; R450]”.
In the case of Heat shock cognate 71 kDa protein, the “Modifications (Deamidated [R...] = citrullinated arginine positions found)” value [1] is reported as “Deamidated [R323]”.
With Pre-mRNA-processing-splicing factor 8 the “Modifications (Deamidated [R...] = citrullinated arginine positions found)” value [1] was “Deamidated [R362]”.
For “P17661 (VELQELNDRFANYIEKVR; also: deamidated, site not given here) [Peptide P17661]”, the Modifications (PAD2 and PAD4) was “Deamidated [R118; R386]”.
For Interleukin-8, the “Modifications (Deamidated [R...] = citrullinated arginine positions found)” value [1] was “Deamidated [R74]”.
In the case of “MYLNVIINNTWQGDFSQIKVFLMTLKNMISKLKTECGCQFTSKLEGMFRDMSISNTTMDEFRQHLQATGVSLGGVDLTVRVLTTGYWPTQSATPKCNIPPAPRHAFEIFRRFYLAKHSGRQLTLQHHMGSADLNATFYGPVKKEDGSEVGVGGAQVTGSNTRKHILQVSTFQMTILMLFNNREKYTFEEIQQETDIPERELVRALQSLACGKPTQRVLTKEPKSKEIENGHIFTVNDQFTSKLHRVKIQTVAAKQGESDPERKETRQKVDDDRKHEIEAAIVRIMKSRKKMQHNVLVAEVTQQLKARFLPSPVVIKKRIEGLIEREYLARTPEDRKVYTYVA [Peptide A0A087WTG3]”, the Modifications (PAD2 / PAD4) is reported as “Deamidated [R283]”.
“P04259 (ATGGGLSSVGGGSSTIK) [Peptide P04259]” was tested, and the Modifications (PAD2 and PAD4) was “Deamidated [R182; R222; R326; R369]”.
For P05160 (LIENGYFHPVK) [Peptide P05160], the Modifications (PAD2 and PAD4) was “Deamidated [R69; R147; R271; R273; R380; R424; R432; R463; R507; R603]”.
In the case of P41219 (EYQELLNVK) [Peptide P41219], the Modifications (PAD2 and PAD4) is reported as “Deamidated [R397]”.
In the case of Filaggrin-2, the “Modifications (Deamidated [R...] = citrullinated arginine positions found)” value [1] is reported as “Deamidated [R63]”.
With “P04264 (GGGFGGGGIGGGGFGG) [Peptide P04264]” the Modifications (PAD2 and PAD4) was “Deamidated [R29; R65; R239; R267; R277; R386; R432; R483; R518; R549]”.
P04275 (IDVPWNVVPEK) [Peptide P04275] was tested, and the Modifications (PAD2 and PAD4) was “Deamidated [R236; R768; R782; R816; R906; R945; R1204; R1205; R1597; R1641; R1853; R1888; R1916; R1921; R1924; R1943; R1956; R1998; R2099; R2185; R2464; R2535; R2663; R2681; R2730]”.
For P01876 [Peptide P01876], the Modifications (PAD2 and PAD4) was “Deamidated [R253; R263; R273]”.
